Measured values: patent US20230150944A1, “PESTICIDALLY ACTIVE HETEROCYCLIC DERIVATIVES WITH SULFOXIMINE CONTAINING SUBSTITUENTS” (SYNGENTA CROP PROTECTION AG, priority 2018, published 2023)

Key:
Format in all cases: in vivo
[1] = system: Plutella xylostella (Diamond Back Moth); assay: Example B6: Activity on Plutella xylostella, artificial diet, L2 larvae; details: 120 h, application rate of 200 ppm, 5 days after infestation, read-out: effect in at least one of the two categories (mortality or growth inhibition)
Procedure: Example B6: Activity on Plutella xylostella (Diamond Back Moth)
(§1) 24-well microtiter plates with artificial diet were treated with aqueous test solutions prepared from 10′000 ppm DMSO stock solutions by pipetting. After drying, the plates were infested with L2 larvae (10 to 15 per well). The samples were assessed for mortality and growth inhibition in comparison to untreated samples 5 days after infestation.

[2] = system: Myzus persicae (Green Peach Aphid); assay: Example B5: Activity on Myzus persicae, pea seedling roots in test solution; details: 144 h, test rate of 24 ppm, roots of infested pea seedlings placed into test solution, 6 days
Procedure: Example B5: Activity on Myzus persicae (Green Peach Aphid)
Roots of pea seedlings infested with an aphid population of mixed ages were placed directly into aqueous test solutions prepared from 10′000 DMSO stock solutions. The samples were assessed for mortality 6 days after placing seedlings into test solutions.

[3] = system: Bemisia tabaci (Cotton White Fly); assay: Example B1: Activity on Bemisia tabaci, cotton leaf disc spray; details: foliar, 144 h, application rate of 200 ppm, adult white flies on cotton leaf discs, 6 days after incubation
Procedure: Example B1: Activity on Bemisia tabaci (Cotton White Fly)
Cotton leaf discs were placed on agar in 24-well microtiter plates and sprayed with aqueous test solutions prepared from 10′000 ppm DMSO stock solutions. After drying the leaf discs were infested with adult white flies. The samples were checked for mortality 6 days after incubation.

[4] = system: Myzus persicae (Green Peach Aphid); assay: Example B4: Activity on Myzus persicae, sunflower leaf disc spray; details: foliar, 144 h, application rate of 200 ppm, mixed-age aphids on sprayed sunflower leaf discs, 6 days after infestation
Procedure: Example B4: Activity on Myzus persicae (Green Peach Aphid)
Sunflower leaf discs were placed onto agar in a 24-well microtiter plate and sprayed with aqueous test solutions prepared from 10′000 ppm DMSO stock solutions. After drying, the leaf discs were infested with an aphid population of mixed ages. The samples were assessed for mortality 6 days after infestation.

[5] = system: Diabrotica balteata (Corn Root Worm); assay: Example B2: Activity on Diabrotica balteata, maize sprout spray; details: 96 h, application rate of 200 ppm, L2 larvae on maize sprouts, 4 days after infestation, read-out: effect in at least one of the two categories (mortality or growth inhibition)
Procedure: Example B2: Activity on Diabrotica balteata (Corn Root Worm)
as §1, with “Maize sprouts placed onto an agar layer in 24-well” for “24-well”, “plates” for “plates with artificial diet”, “spraying.” for “pipetting.”, “(6” for “(10”, “10” for “15”, “4” for “5”

[6] = system: Euschistus heros (Neotropical Brown Stink Bug); assay: Example B3: Activity on Euschistus heros, soybean leaf spray; details: 120 h, application rate of 200 ppm, N2 nymphs on soybean leaves, 5 days after infestation, read-out: effect in at least one of the two categories (mortality or growth inhibition)
Procedure: Example B3: Activity on Euschistus heros (Neotropical Brown Stink Bug)
Soybean leaves on agar in 24-well microtiter plates were sprayed with aqueous test solutions prepared from 10′000 ppm DMSO stock solutions. After drying the leaves were infested with N2 nymphs. The samples were assessed for mortality and growth inhibition in comparison to untreated samples 5 days after infestation.

[7] = system: Plutella xylostella (Diamond Back Moth); assay: Example B11: Activity on Plutella xylostella, artificial diet, eggs; details: 192 h, application rate of 200 ppm, 8 days after infestation, read-out: effect in at least one of the two categories (mortality or growth inhibition)
Procedure: Example B11: Activity on Plutella xylostella (Diamond Back Moth)
as §1, with “drying, Plutella eggs were pipetted through a plastic stencil onto a gel blotting paper and” for “drying,”, “plate was closed” for “plates were infested”, “it.” for “L2 larvae (10 to 15 per well).”, “8” for “5”

[8] = system: Spodoptera littoralis (Egyptian Cotton Leaf Worm); assay: Example B7: Activity on Spodoptera littoralis, cotton leaf disc spray; details: foliar, 72 h, application rate of 200 ppm, L1 larvae on cotton leaf discs, 3 days after infestation, read-out: control (mortality, anti-feeding effect or growth inhibition)
Procedure: Example B7: Activity on Spodoptera littoralis (Egyptian Cotton Leaf Worm)
Cotton leaf discs were placed onto agar in 24-well microtiter plates and sprayed with aqueous test solutions prepared from 10′000 ppm DMSO stock solutions. After drying the leaf discs were infested with five L1 larvae. The samples were assessed for mortality, anti-feeding effect, and growth inhibition in comparison to untreated samples 3 days after infestation. Control of Spodoptera littoralis by a test sample is given when at least one of the categories mortality, anti-feedant effect, and growth inhibition is higher than the untreated sample.

CCS(=N)(=O)c1cc(C2(C#N)CC2)cnc1-c1nc2cc(C(F)(F)F)cnc2n1C (stereo not drawn) [Example P6, 1-[5-(ethylsulfonimidoyl)-6-[3-methyl-6-(trifluoromethyl)imidazo[4,5-b]pyridin-2-yl]-3-pyridyl]cyclopropanecarbonitrile]
≥ 80%: percent effect (mortality or growth inhibition) at 200 ppm [1] | mortality at 24 ppm [2] | mortality at 200 ppm [3] | mortality at 200 ppm [4]

CCS(=N)(=O)c1cc(C2(C#N)CC2)ccc1-c1nc2cc(C(F)(F)F)ncc2n1C (stereo not drawn) [Example P13, 1-[3-(ethylsulfonimidoyl)-4-[3-methyl-6-(trifluoromethyl)imidazo[4,5-c]pyridin-2-yl]phenyl]cyclopropanecarbonitrile]
≥ 80%: mortality at 24 ppm [2] | percent effect (mortality or growth inhibition) at 200 ppm [5] | percent effect (mortality or growth inhibition) at 200 ppm [6] | mortality at 200 ppm [3] | mortality at 200 ppm [4]

CCS(=N)(=O)c1cc(C2CC2)cnc1-c1nc2cc(S(=O)(=O)C(F)(F)F)ccc2o1 (stereo not drawn) [Example P19, [5-cyclopropyl-2-[5-(trifluoromethylsulfonyl)-l ,3-benzoxazol-2-yl]-3-pyridyl]-ethyl-imino-oxo-λ^6-sulfane]
≥ 80%: percent effect (mortality or growth inhibition) at 200 ppm [7]

CCS(=N)(=O)c1cc(C2CC2)cnc1-n1cc2cnc(C(F)(F)F)cc2n1 (stereo not drawn) [Example P7, [5-cyclopropyl-2-[6-(trifluoromethyl)pyrazolo[4,3-c]pyridin-2-yl]-3-pyridyl]-ethyl-imino-oxo-λ^6-sulfane]
≥ 80%: percent control (mortality, anti-feedant effect or growth inhibition) at 200 ppm [8] | percent effect (mortality or growth inhibition) at 200 ppm [1] | mortality at 24 ppm [2] | percent effect (mortality or growth inhibition) at 200 ppm [5] | mortality at 200 ppm [4]

CCS(=N)(=O)c1cc(C2(C#N)CC2)ccc1-c1nc2cc(C(F)(F)F)cnc2n1C (stereo not drawn) [Example P15, 1-[3-(ethylsulfonimidoyl)-4-[3-methyl-6-(trifluoromethyl)imidazo[4,5-b]pyridin-2-yl]phenyl]cyclopropanecarbonitrile]
≥ 80%: percent control (mortality, anti-feedant effect or growth inhibition) at 200 ppm [8] | percent effect (mortality or growth inhibition) at 200 ppm [1] | mortality at 24 ppm [2] | percent effect (mortality or growth inhibition) at 200 ppm [6] | mortality at 200 ppm [3] | mortality at 200 ppm [4]

CCS(=N)(=O)c1cc(C2CC2)cnc1-c1nc2cc(C(F)(F)F)cnc2n1C (stereo not drawn) [Example P12, [5-cyclopropyl-2-[3-methyl-6-(trifluoromethyl)imidazo[4,5-b]pyridin-2-yl]-3-pyridyl]-ethyl-imino-oxo-λ^6-sulfane]
≥ 80%: percent control (mortality, anti-feedant effect or growth inhibition) at 200 ppm [8] | percent effect (mortality or growth inhibition) at 200 ppm [1] | mortality at 24 ppm [2] | percent effect (mortality or growth inhibition) at 200 ppm [5] | mortality at 200 ppm [4]

CCS(=N)(=O)c1cc(C2CC2)cnc1-c1nc2cc(SC(F)(F)F)ccc2o1 (stereo not drawn) [Example P18, [5-cyclopropyl-2-[5-(trifluoromethylsulfanyl)-1,3-benzoxazol-2-yl]-3-pyridyl]-ethyl-imino-oxo-λ^6-sulfane]
≥ 80%: percent effect (mortality or growth inhibition) at 200 ppm [7]

CCS(=N)(=O)c1cc(C2CC2)cnc1-c1nc2cc(C(F)(F)F)ncc2n1C (stereo not drawn) [Example P5, [5-cyclopropyl-2-[3-methyl-6-(trifluoromethyl)imidazo[4,5-c]pyridin-2-yl]-3-pyridyl]-ethyl-imino-oxo-λ^6-sulfane]
≥ 80%: percent control (mortality, anti-feedant effect or growth inhibition) at 200 ppm [8] | percent effect (mortality or growth inhibition) at 200 ppm [1] | mortality at 24 ppm [2] | percent effect (mortality or growth inhibition) at 200 ppm [5] | mortality at 200 ppm [4]

CCS(=N)(=O)c1cc(C2CC2)cnc1-c1nc2cc(SC(F)(F)F)ncc2n1C (stereo not drawn) [Example P4, [5-cyclopropyl-2-[3-methyl-6-(trifluoromethylsulfanyl)imidazo[4,5-c]pyridin-2-yl]-3-pyridyl]-ethyl-imino-oxo-λ^6-sulfane]
≥ 80%: percent control (mortality, anti-feedant effect or growth inhibition) at 200 ppm [8] | percent effect (mortality or growth inhibition) at 200 ppm [1] | mortality at 24 ppm [2] | percent effect (mortality or growth inhibition) at 200 ppm [5] | percent effect (mortality or growth inhibition) at 200 ppm [6] | mortality at 200 ppm [3] | mortality at 200 ppm [4]

CCS(=N)(=O)c1cc(C2(C#N)CC2)cnc1-c1nc2cc(C(F)(F)F)n(OC)c(=O)c2n1C (stereo not drawn) [Example P8, 1-[5-(ethylsulfonimidoyl)-6-[5-methoxy-3-methyl-4-oxo-6-(trifluoromethyl)imidazo[4,5-c]pyridin-2-yl]-3-pyridyl]cyclopropanecarbonitrile]
≥ 80%: percent control (mortality, anti-feedant effect or growth inhibition) at 200 ppm [8] | percent effect (mortality or growth inhibition) at 200 ppm [1] | mortality at 24 ppm [2] | percent effect (mortality or growth inhibition) at 200 ppm [5] | percent effect (mortality or growth inhibition) at 200 ppm [6] | mortality at 200 ppm [3] | mortality at 200 ppm [4]

CCS(=N)(=O)c1cc(C2(C#N)CC2)cnc1-c1nc2cc(C(F)(F)F)nnc2n1C (stereo not drawn) [Example P10, 1-[5-(ethylsulfonimidoyl)-6-[7-methyl-3-(trifluoromethyl)imidazo[4,5-c]pyridazin-6-yl]-3-pyridyl]cyclopropanecarbonitrile]
≥ 80%: mortality at 24 ppm [2] | percent effect (mortality or growth inhibition) at 200 ppm [5] | percent effect (mortality or growth inhibition) at 200 ppm [6] | mortality at 200 ppm [3] | mortality at 200 ppm [4]

CCS(=N)(=O)c1cc(C2(C#N)CC2)ccc1-c1nc2cc(SC(F)(F)F)ncc2n1C (stereo not drawn) [Example P9, 1-[3-(ethylsulfonimidoyl)-4-[3-methyl-6-(trifluoromethylsulfanyl)imidazo[4,5-c]pyridin-2-yl]phenyl]cyclopropanecarbonitrile]
≥ 80%: mortality at 24 ppm [2] | percent effect (mortality or growth inhibition) at 200 ppm [6] | mortality at 200 ppm [4]

CCS(=N)(=O)c1cc(C2CC2)cnc1-c1nc2cc(C(F)(F)F)nnc2n1C (stereo not drawn) [Example P11, [5-cyclopropyl-2-[7-methyl-3-(trifluoromethyl)imidazo[4,5-c]pyridazin-6-yl]-3-pyridyl]-ethyl-imino-oxo-λ^6-sulfane]
≥ 80%: percent control (mortality, anti-feedant effect or growth inhibition) at 200 ppm [8] | percent effect (mortality or growth inhibition) at 200 ppm [1] | mortality at 24 ppm [2] | percent effect (mortality or growth inhibition) at 200 ppm [5] | mortality at 200 ppm [4]

CCn1c(C(F)(F)F)cc2nc(-c3ncc(C4(C#N)CC4)cc3S(=N)(=O)CC)n(C)c2c1=O (stereo not drawn) [Example P14, 1-[6-[5-ethyl-3-methyl-4-oxo-6-(trifluoromethyl)imidazo[4,5-c]pyridin-2-yl]-5-(ethylsulfonimidoyl)-3-pyridyl] cyclopropanecarbonitrile]
≥ 80%: percent control (mortality, anti-feedant effect or growth inhibition) at 200 ppm [8] | percent effect (mortality or growth inhibition) at 200 ppm [1] | mortality at 24 ppm [2] | percent effect (mortality or growth inhibition) at 200 ppm [5] | percent effect (mortality or growth inhibition) at 200 ppm [6] | mortality at 200 ppm [3] | mortality at 200 ppm [4]

CCS(=N)(=O)c1cc(C2(C#N)CC2)cnc1-n1cc2cnc(C(F)(F)F)cc2n1 (stereo not drawn) [Example P17, 1-[5-(ethylsulfonimidoyl)-6-[6-(trifluoromethyl)pyrazolo[4,3-c]pyridin-2-yl]-3-pyridyl] cyclopropanecarbonitrile]
≥ 80%: mortality at 24 ppm [2] | percent effect (mortality or growth inhibition) at 200 ppm [7] | mortality at 200 ppm [4]
